This is an account of results in PubChem BioAssay (NCI).

The structures appear in SMILES notation.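 Five concentrations, 48 hours, 96-well plates. GI50 is the concentration that inhibits growth by half. TGI: total growth inhibition.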 Bounds are passed on as bounds.

Among the test systems are HT29 colon; MDA-MB-435; NCI-H460 lung; SNB-19 CNS; SR leukemia; MALME-3M melanoma; HOP-62 NSCLC; SF-295 CNS; K-562 leukemia; UACC-62 melanoma.
Holding throughout (assay): NCI-60 cell line screen, 48 h

Consider `COc1cccc(N=Cc2cc3cc(Br)ccc3nc2Cl)c1`, for which the TGI was greater than 50 µM with HT29 colon; greater than 50 µM in the assay on MDA-MB-435; greater than 50 µM in the assay with NCI-H460 lung; greater than 50 µM in the assay with SNB-19 CNS; 20.8 µM in the assay with SR leukemia; greater than 50 µM in the assay with MALME-3M melanoma. In addition, the TGI in the assay with HOP-62 NSCLC, with SF-295 CNS and in the assay on K-562 leukemia was greater than 50 µM throughout.
On to `CC#CC#C/C=C1/O[C@]2(CCC(OC(C)=O)CO2)[C@@H]2O[C@H]12` (some centres not stated), for which the TGI is 96.1 µM with HT29 colon; 81.5 µM in the assay on MDA-MB-435; 41.8 µM in the assay on NCI-H460 lung; greater than 100 µM with SNB-19 CNS; greater than 100 µM in the assay with SR leukemia; 36.8 µM with UACC-62 melanoma. The TGI in the assay on MALME-3M melanoma is 35.6 µM; with HOP-62 NSCLC, greater than 100 µM; in the assay on SF-295 CNS, greater than 100 µM; with K-562 leukemia, greater than 100 µM.
Take `N=c1oc2c(Cl)cc(Cl)cc2cc1C(=O)Nc1cccc2ccccc12`: the TGI with HT29 colon was greater than 100 µM; in the assay on MDA-MB-435 it was greater than 100 µM; in the assay on NCI-H460 lung, 62.1 µM; with SNB-19 CNS, greater than 78.2 µM; in the assay on SR leukemia it was greater than 21.1 µM; in the assay with UACC-62 melanoma it was greater than 100 µM. For the same molecule, the TGI in the assay on MALME-3M melanoma is greater than 100 µM; with HOP-62 NSCLC it was 42.3 µM; in the assay on SF-295 CNS, 96.9 µM; in the assay with K-562 leukemia it was greater than 53.3 µM.
`CCSCCC(N)C(=O)O` (configuration not stated): the TGI with HT29 colon, with MDA-MB-435, with NCI-H460 lung, with SNB-19 CNS, in the assay on SR leukemia and in the assay with UACC-62 melanoma was greater than 100 µM in each case. Moreover, the TGI with MALME-3M melanoma, in the assay on HOP-62 NSCLC, with SF-295 CNS and with K-562 leukemia was greater than 100 µM throughout.
With `COc1ccc2nc(-n3c(/C=C/c4ccccc4O)nc4ccccc4c3=O)sc2c1`, the TGI in the assay on HT29 colon is greater than 100 µM; in the assay on MDA-MB-435, 49.2 µM; in the assay on NCI-H460 lung it was greater than 100 µM; in the assay with SNB-19 CNS, greater than 100 µM; with UACC-62 melanoma it was greater than 100 µM; in the assay on MALME-3M melanoma, greater than 100 µM. The TGI was greater than 100 µM in the assay on HOP-62 NSCLC, greater than 100 µM in the assay with SF-295 CNS and 59.6 µM in the assay with K-562 leukemia.
For the molecule `CCOC(=O)c1nc2ccc(Cl)cc2c2c1Cc1ccccc1-2`, the TGI with SNB-19 CNS, with SR leukemia, with UACC-62 melanoma, in the assay with HOP-62 NSCLC, in the assay with SF-295 CNS and in the assay on K-562 leukemia was greater than 100 µM throughout.
As for `COc1cc(C2C(C(=O)O)=C(CO)Oc3cc4c(cc32)OCO4)cc(OC)c1O` (configuration not stated), the TGI in the assay with HT29 colon, with NCI-H460 lung, with SNB-19 CNS, with UACC-62 melanoma, with MALME-3M melanoma and in the assay with HOP-62 NSCLC was greater than 100 µM each time. The TGI in the assay with SF-295 CNS and in the assay on K-562 leukemia was greater than 100 µM each time.
On to `C[C@]12CC[C@@H]3c4ccc(OP(=O)(O)O)cc4CC[C@H]3[C@@H]1CCC2=O`, for which the TGI in the assay with HT29 colon, in the assay with MDA-MB-435, with NCI-H460 lung, in the assay with SNB-19 CNS, in the assay with UACC-62 melanoma and with MALME-3M melanoma was greater than 100 µM in each case. Besides, the TGI in the assay on HOP-62 NSCLC, in the assay with SF-295 CNS and with K-562 leukemia was greater than 100 µM throughout.
Regarding `CN(C)CC(=O)Nc1ccc(Cn2nnc3c2C(=O)c2nnn(Cc4ccc(NC(=O)CN(C)C)cc4)c2C3=O)cc1`, the GI50 in the assay with MDA-MB-435 is 0.0708 µM; in the assay with NCI-H460 lung it was 0.167 µM; in the assay on UACC-62 melanoma, 0.201 µM; in the assay with MALME-3M melanoma it was 0.115 µM; in the assay with K-562 leukemia it was 0.293 µM. In addition, the TGI was 0.198 µM in the assay on MDA-MB-435; 1.2 µM in the assay on NCI-H460 lung; 0.432 µM in the assay with UACC-62 melanoma; 0.266 µM in the assay with MALME-3M melanoma; greater than 100 µM in the assay on K-562 leukemia.
For the molecule `ONc1ncnc2nc[nH]c12`, the TGI in the assay on HT29 colon, with NCI-H460 lung, in the assay with SNB-19 CNS, with SR leukemia, in the assay on UACC-62 melanoma and in the assay on MALME-3M melanoma was greater than 100 µM in each case. Also, the TGI in the assay on HOP-62 NSCLC, with SF-295 CNS and in the assay on K-562 leukemia was greater than 100 µM each time.
As to `Cn1c(=S)[nH]c2sc3c(c2c1=O)CCSC3`, the TGI in the assay on HT29 colon, in the assay on MDA-MB-435, in the assay on NCI-H460 lung, with SNB-19 CNS, with UACC-62 melanoma and in the assay with MALME-3M melanoma was greater than 100 µM each time. The TGI was 66.3 µM in the assay on HOP-62 NSCLC, 97.3 µM in the assay with SF-295 CNS and greater than 100 µM in the assay on K-562 leukemia.
For `CCCc1[nH]c(SCCCCCCCCSc2nc(-c3ccc(F)cc3)c(CCC)[nH]2)nc1-c1ccc(F)cc1`, the TGI with HT29 colon, with NCI-H460 lung, in the assay with SNB-19 CNS, in the assay with SR leukemia, in the assay on UACC-62 melanoma and in the assay with HOP-62 NSCLC was greater than 100 µM throughout. Further, in the assay on K-562 leukemia, the TGI was greater than 100 µM.
Regarding `COc1ccc2nc(-c3ccc(-c4noc(-c5cc(OC)c(OC)c(OC)c5)n4)cc3)[nH]c2c1`, the GI50 is 2.7 µM in the assay on HT29 colon; 4.27 µM in the assay on MDA-MB-435; 4.6 µM in the assay with NCI-H460 lung; 12.7 µM with SNB-19 CNS; 14 µM in the assay with UACC-62 melanoma; 1.67 µM in the assay on MALME-3M melanoma. The GI50 in the assay on HOP-62 NSCLC was 4.44 µM; with SF-295 CNS, 15 µM; in the assay on K-562 leukemia, 1.2 µM. In addition, the TGI stood at 15.2 µM in the assay with HT29 colon; 39.8 µM in the assay on MDA-MB-435; 22.5 µM with NCI-H460 lung; 36.8 µM in the assay with SNB-19 CNS; 33.4 µM in the assay on UACC-62 melanoma; 7.51 µM with MALME-3M melanoma. Further, the TGI is 16.8 µM with HOP-62 NSCLC, 38.3 µM in the assay on SF-295 CNS and greater than 100 µM in the assay on K-562 leukemia.
As for `Cc1cccc2nc3c(C(=O)NCCN(C)C)cccc3cc12`, the TGI in the assay on HT29 colon came to 4.54 µM; in the assay on NCI-H460 lung, 4.18 µM; with SNB-19 CNS, 5.2 µM; with UACC-62 melanoma it was 3.38 µM; with MALME-3M melanoma it was 2.78 µM; in the assay on HOP-62 NSCLC it was 4.88 µM. Besides, the TGI in the assay on SF-295 CNS turned out to be 4.65 µM; in the assay on K-562 leukemia it was 8.22 µM.
